Assay results from patent US8598132B2, “Glycosylated indolocarbazoles, method for obtaining same and uses thereof” (Universidad de Oviedo, priority 2008, dated 2013).

What was measured:
Type in all cases: biochemical
[1] = target: T1, AmpKa1 (Homo sapiens, UniProt Q13131); test: LabChip (Caliper) kinase assay, AmpKa1; conditions: read-out: remaining kinase activity (in %) / percentage of inhibition; for inhibition at 0.01 µM: compound at 10 nM; for inhibition at 0.1 µM: compound at 100 nM
T1 construct: purchased Carna Biosciences
T1 sequence (Q13131 whole entry): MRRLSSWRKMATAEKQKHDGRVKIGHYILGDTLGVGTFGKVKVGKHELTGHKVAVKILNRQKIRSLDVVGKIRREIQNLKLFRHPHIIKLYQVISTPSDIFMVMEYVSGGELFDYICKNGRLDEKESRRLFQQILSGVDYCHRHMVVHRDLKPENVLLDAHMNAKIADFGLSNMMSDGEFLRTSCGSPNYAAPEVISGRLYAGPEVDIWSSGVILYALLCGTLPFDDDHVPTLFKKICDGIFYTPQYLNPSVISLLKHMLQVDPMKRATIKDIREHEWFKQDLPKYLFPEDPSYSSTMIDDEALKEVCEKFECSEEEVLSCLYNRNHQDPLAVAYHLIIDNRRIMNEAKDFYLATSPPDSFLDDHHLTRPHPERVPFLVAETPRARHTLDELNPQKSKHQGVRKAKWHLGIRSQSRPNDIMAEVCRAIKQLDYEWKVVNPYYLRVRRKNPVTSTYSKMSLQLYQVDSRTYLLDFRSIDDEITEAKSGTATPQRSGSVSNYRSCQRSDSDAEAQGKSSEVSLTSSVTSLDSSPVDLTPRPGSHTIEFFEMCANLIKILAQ
T1 sequence (Q9Y478 whole entry partner): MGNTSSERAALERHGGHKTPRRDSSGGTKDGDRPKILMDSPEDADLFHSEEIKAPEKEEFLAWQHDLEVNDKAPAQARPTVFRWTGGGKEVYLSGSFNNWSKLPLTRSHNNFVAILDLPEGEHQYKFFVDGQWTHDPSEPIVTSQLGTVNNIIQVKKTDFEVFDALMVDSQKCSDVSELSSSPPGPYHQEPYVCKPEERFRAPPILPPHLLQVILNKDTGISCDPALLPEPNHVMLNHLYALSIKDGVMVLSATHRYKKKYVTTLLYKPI
T1 sequence (P54619 whole entry partner): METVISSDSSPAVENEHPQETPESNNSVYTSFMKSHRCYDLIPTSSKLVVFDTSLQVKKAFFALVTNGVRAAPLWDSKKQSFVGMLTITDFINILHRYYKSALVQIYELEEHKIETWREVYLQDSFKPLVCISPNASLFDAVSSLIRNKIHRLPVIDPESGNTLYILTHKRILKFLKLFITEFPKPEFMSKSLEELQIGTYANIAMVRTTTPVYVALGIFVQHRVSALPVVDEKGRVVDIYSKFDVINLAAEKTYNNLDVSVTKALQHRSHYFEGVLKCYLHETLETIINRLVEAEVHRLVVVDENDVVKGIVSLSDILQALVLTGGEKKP
Description: (§1) The analysis of kinase activity described here was performed using LabChip (Caliper Life Sciences), specifically the Caliper LC3000 and the EZ Reader II instruments.
(§2) The kinase assay used measures the conversion of a fluorescent peptide (substrate) to a phosphorylated product. The reaction mixture, in a microplate well, is introduced by a capillary in a chip where the non-phosphorylated substrate and the phosphorylated product are separated by […]. The intensity of the fluorescent signal over time is related to the reaction progress. The phosphorylated product migrates quicker than the non-phosphorylated substrate and the signals of the two forms of the peptide appear as differentiated peaks. The Caliper determines the peak height and calculates the ratio of product to the peak sum (P/(P+S)). This value is used to compare wells with compounds and wells with controls and thus determine the % of inhibition for the given product.
(§3) The followings kinases were used for the enzymatic inhibition studies, between brackets the value of the Michaelis-Menten constant, Km, of the ATP (Adenosine triphosphate) for each kinase, in μM: obtained from Carna Biosciences: MAPKAPK2 (4.6), AurA (3.6), AurB (5), PKCζ (3.8), RSK1 (23.3), PRAK (5), Erk1 (33.4), PKD2 (32.1), CK1d (16.3), CHK1 (33), ABL (61.7), FYN (36), LYNa (17), CHK2 (57.8), MET (79.5), LCK (28.5), SRC (38), GSK3β (7.3), Erk2 (62.1), PKACα (1.7), AKT2 (186.1), INSR (871.8), p38a (396.5), AKT1(48), MSK1 (21.2), PKCβ2 (84.8), ROCK2 (3.3), PIM2 (4.9), AMPK (38.6), KDR (164.8), IRAK4 (196.5), SGK1 (121.8), SYK (33.5); obtained from Invitrogen: CDK2 (57.6), BTK (123), HGK (80); obtained from Upstate: MST2 (36.6), PKGα (16), PAK2 (1.9), IGF1R (320), FGFR1 (171), MARK1 (33), CAMK2δ (22.4), c-TAK1 (66), DYRK1a (18.1), CaMK4 (3.9), FLT3 (350), c-Raf (6.2), P70S6K (95).
(§4) The compounds were dissolved in 100% DMSO and were diluted at 25 times the final concentration desired for the assay. In the case of the determination of Cl50, serial dilutions were made to reach eight concentrations and give rise to the inhibition curve. 1 μL of each concentration is transferred, in duplicate to a 384-well microplate. 12 μL of enzymatic buffer is added to each well containing purified kinase (several suppliers as indicated above), 100 mM HEPES, pH 7.5, 1 mM DTT (Calbiochem), 0.002% Brij-35 (Sigma) and also in presence of 10 mM MgCl2 as cofactor, except for INSR and IRAK4 wherein 10 mM MnCl2 is used instead of MgCl2. For the kinases CAMK26 and CAMK4, 1 mM CaCl2 and 6.7 μg/mL of calmodulin are also added. For KDR kinase, 0.05% of the CHAPSO detergent is added. For the c-Raf kinase, 10 mM MnCl2 is added. For PKCβ2 0.02 μg/mL of PS/PMA is added. For PKGα se 10 μM of cGMP (cyclic guanosine monophosphate) is added. The compound and the enzyme are left for 15 minutes preincubation and, then, the following are added to each well: 12 μL of peptide buffer/ATP containing 100 mM HEPES, pH 7.5, 1.5 μM peptide marker with fluorescein (specific for the corresponding kinase), ATP (at concentration KM), and 0.002% Brij-35 to start the reaction. Generally, the reactions are incubated for 1-1.5 h at ambient temperature to obtain an adequate conversion (15-40%) of the peptide to the phosphorylated product. The reactions were ended by the addition of 45 μL of buffer containing 0 mM EDTA. The microplates were read by the LabChip 3000 using a 12-channel LabChip. The P/(P+S) values were obtained as described above and the CI50 curves were generated using XIfit. […]

[2] = tested on: CamK2a; test: LabChip (Caliper) kinase assay, CamK2a
Description: as §1, §2, §3
(§5) The compounds were dissolved in 100% DMSO and were diluted at 25 times the final concentration desired for the assay. In the case of the determination of Cl50, serial dilutions were made to reach eight concentrations and give rise to the inhibition curve. 1 μL of each concentration is transferred, in duplicate to a 384-well microplate. 12 μL of enzymatic buffer is added to each well containing purified kinase (several suppliers as indicated above), 100 mM HEPES, pH 7.5, 1 mM DTT (Calbiochem), 0.002% Brij-35 (Sigma) and also in presence of 10 mM MgCl2 as cofactor, except for INSR and IRAK4 wherein 10 mM MnCl2 is used instead of MgCl2. For the kinases CAMK26 and CAMK4, 1 mM CaCl2 and 6.7 μg/mL of calmodulin are also added. For KDR kinase, 0.05% of the CHAPSO detergent is added. For the c-Raf kinase, 10 mM MnCl2 is added. For PKCβ2 0.02 μg/mL of PS/PMA is added. For PKGα se 10 μM of cGMP (cyclic guanosine monophosphate) is added. The compound and the enzyme are left for 15 minutes preincubation and, then, the following are added to each well: 12 μL of peptide buffer/ATP containing 100 mM HEPES, pH 7.5, 1.5 μM peptide marker with fluorescein (specific for the corresponding kinase), ATP (at concentration KM), and 0.002% Brij-35 to start the reaction. Generally, the reactions are incubated for 1-1.5 h at ambient temperature to obtain an adequate conversion (15-40%) of the peptide to the phosphorylated product. The reactions were ended by the addition of 45 μL of buffer containing 0 mM EDTA. The microplates were read by the LabChip 3000 using a 12-channel LabChip. The P/(P+S) values were obtained as described above and the CI50 curves were generated using XIfit.
(§6) For example, the activity of the Dyrk1a kinase is inhibited in 87% by the compound of formula (III) and completely by the compound of formula (XII) when used at a concentration of 10 nM.

[3] = target: FGFR3 (Homo sapiens, UniProt P22607); test: LabChip (Caliper) kinase assay, FGFR3; conditions: read-out: remaining kinase activity (in %) / percentage of inhibition; for inhibition at 0.01 µM: compound at 10 nM; for inhibition at 0.1 µM: compound at 100 nM
Sequence of FGFR3 (P22607 23-806, species assumed): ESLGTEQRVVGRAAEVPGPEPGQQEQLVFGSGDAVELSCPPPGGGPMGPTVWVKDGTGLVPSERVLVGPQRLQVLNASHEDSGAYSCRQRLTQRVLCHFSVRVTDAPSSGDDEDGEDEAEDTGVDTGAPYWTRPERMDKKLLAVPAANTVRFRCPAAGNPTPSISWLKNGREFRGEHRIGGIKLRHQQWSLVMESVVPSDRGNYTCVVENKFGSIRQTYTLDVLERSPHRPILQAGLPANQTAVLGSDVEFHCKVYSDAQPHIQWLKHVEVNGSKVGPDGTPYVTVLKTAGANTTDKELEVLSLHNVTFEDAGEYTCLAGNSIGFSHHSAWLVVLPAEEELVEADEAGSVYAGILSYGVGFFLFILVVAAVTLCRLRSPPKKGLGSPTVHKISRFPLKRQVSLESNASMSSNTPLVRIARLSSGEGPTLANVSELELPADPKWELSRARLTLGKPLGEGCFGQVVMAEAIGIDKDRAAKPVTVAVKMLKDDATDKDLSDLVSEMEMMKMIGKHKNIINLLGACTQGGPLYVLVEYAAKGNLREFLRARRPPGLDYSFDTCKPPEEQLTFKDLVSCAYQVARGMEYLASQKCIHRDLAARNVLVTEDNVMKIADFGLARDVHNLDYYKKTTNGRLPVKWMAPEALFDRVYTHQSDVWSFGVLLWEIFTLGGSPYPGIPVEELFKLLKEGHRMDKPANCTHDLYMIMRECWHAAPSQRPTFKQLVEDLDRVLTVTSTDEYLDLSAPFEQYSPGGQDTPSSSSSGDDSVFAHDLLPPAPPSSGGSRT
Description: as §1, §2, §3, §5, §6

[4] = target: T2, RSK1 (Homo sapiens, UniProt Q15418); test: LabChip (Caliper) kinase assay, RSK1; conditions: read-out: remaining kinase activity (in %) / percentage of inhibition; for inhibition at 0.01 µM: compound at 10 nM; for inhibition at 0.1 µM: compound at 100 nM
T2 construct: purchased Carna Biosciences
T2 sequence (Q15418 whole entry): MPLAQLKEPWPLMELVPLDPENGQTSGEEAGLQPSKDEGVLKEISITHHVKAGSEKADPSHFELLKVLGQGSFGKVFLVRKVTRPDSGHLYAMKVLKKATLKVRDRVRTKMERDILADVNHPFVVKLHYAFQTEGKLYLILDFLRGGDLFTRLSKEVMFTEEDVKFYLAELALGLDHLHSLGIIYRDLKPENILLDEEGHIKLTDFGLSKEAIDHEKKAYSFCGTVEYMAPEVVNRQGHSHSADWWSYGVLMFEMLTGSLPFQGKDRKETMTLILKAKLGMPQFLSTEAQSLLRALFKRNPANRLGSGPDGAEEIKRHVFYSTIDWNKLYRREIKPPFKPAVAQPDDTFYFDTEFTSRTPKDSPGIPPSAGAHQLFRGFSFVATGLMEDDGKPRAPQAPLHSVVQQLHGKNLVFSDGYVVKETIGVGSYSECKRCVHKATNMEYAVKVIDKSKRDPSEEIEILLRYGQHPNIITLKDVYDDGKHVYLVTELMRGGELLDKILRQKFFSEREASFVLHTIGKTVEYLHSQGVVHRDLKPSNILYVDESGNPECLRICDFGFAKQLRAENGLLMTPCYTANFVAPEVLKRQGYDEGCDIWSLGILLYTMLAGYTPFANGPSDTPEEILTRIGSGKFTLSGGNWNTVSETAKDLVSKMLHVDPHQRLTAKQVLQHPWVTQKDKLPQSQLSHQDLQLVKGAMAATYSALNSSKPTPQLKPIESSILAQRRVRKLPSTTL
Description: as §1, §2, §3, §4

| Structure (SMILES) | inhibition at 0.01 µM [1] | inhibition at 0.1 µM [1] | remaining kinase activity (in %) / percentage of inhibition ([2]; compound at 10 nM) | remaining kinase activity (in %) / percentage of inhibition ([2]; compound at 100 nM) | inhibition at 0.01 µM [3] | inhibition at 0.1 µM [3] | inhibition at 0.01 µM [4] | inhibition at 0.1 µM [4] |
| --- | --- | --- | --- | --- | --- | --- | --- | --- |
| C[C@@H]1O[C@@H](n2c3ccccc3c3c4c(c5c6ccccc6[nH]c5c32)C(=O)NC4=O)[C@H](O)[C@H](O)[C@H]1O [formula (III), N^13-1′-β-L-rhamnosylarcyriaflavin] | 1% | 11% | −5% | 3% | -10% | -4% | 2% | 20% |
| C[C@@H]1O[C@@H](n2c3ccccc3c3c4c(c5c6ccccc6[nH]c5c32)C(=O)NC4=O)C[C@H](O)[C@H]1O [formula (IV), N^13-1′-β-L-olivosylarcyriaflavin] | 3% | 21% | 36% | 29% | -6% | 3% | 14% | 77% |
| C[C@@H]1O[C@@H](n2c3ccccc3c3c4c(c5c6ccccc6[nH]c5c32)C(=O)NC4=O)C[C@@H](O)[C@H]1O [formula (V), N^13-1′-β-L-digitoxosylarcyriaflavin] | 8% | 28% | 15% | 58% | -6% | -1% | 38% | 77% |
| C[C@H]1O[C@@H](n2c3ccccc3c3c4c(c5c6ccccc6[nH]c5c32)C(=O)NC4=O)C[C@@H](O)[C@@H]1O [formula (VI), N^13-1′-β-D-olivosylarcyriaflavin] | 5% | 33% | 4% | 46% | -8% | -11% | 31% | 74% |
| C[C@@H]1O[C@@H](n2c3ccccc3c3c4c(c5c6ccccc6[nH]c5c32)CNC4=O)[C@H](O)[C@H](O)[C@H]1O [formula (XII), N^13-1′-β-L-rhamnosyl-k252c] | 1% | 7% | −6% | 2% | -2% | -1% | -4% | 7% |
| C[C@@H]1O[C@@H](n2c3ccccc3c3c4c(c5c6ccccc6[nH]c5c32)CNC4=O)C[C@H](O)[C@H]1O [formula (XIII), N^13-1′-β-L-olivosyl-k252c] | -3% | 10% | −6% | 27% | -4% | -6% | 7% | 56% |
| C[C@@H]1O[C@@H](n2c3ccccc3c3c4c(c5c6ccccc6[nH]c5c32)CNC4=O)C[C@@H](O)[C@H]1O [formula (XIV), N^13-1′-β-L-digitoxosyl-k252c] | 2% | 1% | −7% | 26% | -6% | -11% | -1% | 22% |
| C[C@H]1O[C@@H](n2c3ccccc3c3c4c(c5c6ccccc6[nH]c5c32)CNC4=O)C[C@@H](O)[C@@H]1O [formula (XV), N^13-1′-β-D-olivosyl-k252c] | -3% | 9% | −6% | 29% | -20% | -13% | -1% | 31% |
